{
  "source": "patent US11285132B2",
  "about": "“Uses of indolinone compounds” (Oncternal Therapeutics, Inc., priority 2016, dated 2022)",
  "key": {"[1]": {"target": "T1, EWS-FLI1 (Homo sapiens, UniProt Q01543+Q01844)", "T1 construct": "EWS (part of EWSR1, Q01844); expressed in transfected cells; host or cells: COS7", "T1 sequence (Q01543 220-452 limits assumed, one chain of several)": "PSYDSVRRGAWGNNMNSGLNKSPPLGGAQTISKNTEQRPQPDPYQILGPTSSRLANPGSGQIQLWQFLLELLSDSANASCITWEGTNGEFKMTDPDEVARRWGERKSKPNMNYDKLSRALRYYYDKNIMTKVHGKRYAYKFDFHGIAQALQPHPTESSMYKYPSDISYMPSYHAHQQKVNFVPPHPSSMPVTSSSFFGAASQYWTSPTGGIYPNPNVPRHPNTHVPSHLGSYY", "experiment": "EWS-FLI1 / NROB1 reporter-luciferase transcription in COS7 cells", "type": "cell-based", "settings": "COS7 cells transfected with a EWS-FLI1 responsive promoter; read-out: EC50, transcriptional decrease", "description": "(§1) TK216 is a first in class, small molecule that directly binds EWS-FLI1 inhibiting the biological activity of ETS-family transcription factor oncoproteins and is currently under clinical investigation in patients with Ewing sarcoma.\nTK216 reduced transcriptional activity in COS7 cells co-transfected with EWS-FLI1 and NROB1 reporter-luciferase plasmids which contain EWS-FLI1 DNA-binding sites, as shown in FIG. 3."}, "[2]": {"test_system": "EWS-FLI1 and RNA helicase A", "experiment": "EWS-FLI1 protein interaction (FLI1 immunoprecipitation in A4573)", "type": "binding", "settings": "preclinical potency model", "description": "as §1\nFLI1 was immunoprecipitated following treatment with TK216 or DMSO control in A4573 (see FIG. 2)."}, "[3]": {"test_system": "HL-60", "experiment": "72 hr CellTiter-Glo, AML cell line", "type": "cell-based", "settings": "Homo sapiens"}, "[4]": {"test_system": "Kasumi-1", "experiment": "72 hr CellTiter-Glo, AML cell line", "type": "cell-based", "settings": "Homo sapiens"}, "[5]": {"test_system": "THP-1", "experiment": "72 hr CellTiter-Glo, AML cell line", "type": "cell-based", "settings": "Homo sapiens"}, "[6]": {"test_system": "OCI-Ly18", "experiment": "72 hr CellTiter-Glo, DLBCL cell line", "type": "cell-based", "settings": "Homo sapiens"}, "[7]": {"test_system": "OCI-Ly19", "experiment": "72 hr CellTiter-Glo, DLBCL cell line", "type": "cell-based", "settings": "Homo sapiens"}, "[8]": {"test_system": "DLBCL cell lines", "experiment": "Median-effect combination analysis (CalcuSyn, Chou/Talalay CI)", "type": "cell-based", "description": "The median-effect analysis was used to determine synergism, antagonism, or additivity of TK216 when combined with ABT199 (BCL-2i) and ACP196 (BTKi).\nThe inhibition of the EWS-FLI1 oncogene offers a promising approach for the treatment of Ewing Sarcoma, e.g., relapsed/refractory Ewing Sarcoma."}, "[9]": {"test_system": "KARPAS422", "experiment": "Combination with other agents, MTT, Chou-Talalay combination index", "type": "cell-based", "description": "(§2) Y-axis: CI values. In each box-plot, the line in the middle of the box represents the median and the box extends from the 25th to the 75th percentile (interquartile range, IQ); the whiskers extend to the upper and lower adjacent values (i.e., ±1.5 IQ); outside values have been omitted from the figure. CIs for TK-216/rituximab in TMD8, TK-216/rituximab in Karpas422, TK-216/rituximab in OCI-LY-10 are not plotted due to CI values >3. Combinations tested included bendamustine, bortezomib, ibrutinib, idelalisib, lenalidomide, OTX015 (birabresib, CAS No. 202590-98-5), PQR309 (bimiralisib, CAS No. 1225037-39-7 (free base)), selinexor, venetoclax, and vincristine.\n(§3) Cell lines were exposed to YK-4-279 or TK-216, alone or in combination with other compounds, for 72 h using a Tecan D300e Digital Dispenser and 96 well plates. Cell proliferation was measured with MTT. Synergy was determined with the Chou-Talalay combination index. Gene expression profiling (GEP) was performed with the Illumina HumanHT 12 Expression BeadChips. In vivo studies were done in NOD-SCID mice and treatments started with 60 mm3 tumor volumes sc."}, "[10]": {"test_system": "OCI-LY-10", "experiment": "Combination with other agents, MTT, Chou-Talalay combination index", "type": "cell-based", "description": "as §2, §3"}, "[11]": {"test_system": "SU-DHL-4", "experiment": "Combination with other agents, MTT, Chou-Talalay combination index", "type": "cell-based", "description": "as §2, §3"}, "[12]": {"test_system": "TMD8", "experiment": "Combination with other agents, MTT, Chou-Talalay combination index", "type": "cell-based", "description": "as §2, §3"}, "[13]": {"target": "T2, SPIB to DDX5 (Homo sapiens, UniProt Q01892)", "T2 construct": "endogenous in cells", "T2 sequence (Q01892 whole entry)": "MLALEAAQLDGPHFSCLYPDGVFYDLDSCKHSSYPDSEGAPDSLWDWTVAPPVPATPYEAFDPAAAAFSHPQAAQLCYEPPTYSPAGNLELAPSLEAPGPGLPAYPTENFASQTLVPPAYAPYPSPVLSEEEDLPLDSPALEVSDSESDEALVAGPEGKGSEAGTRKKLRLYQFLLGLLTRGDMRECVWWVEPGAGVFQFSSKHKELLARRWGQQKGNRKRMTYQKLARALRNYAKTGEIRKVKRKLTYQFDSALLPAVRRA", "experiment": "Co-IP of SPIB with helicases in ABC DLBCL cell lines", "type": "cell-based", "settings": "500 nM, 4-10 h", "description": "(§4) With the aim to understand the mechanism of action of YK-4-279 and TK-216, the baseline RNA expression levels of the different ETS factors were correlated with sensitivity to the drugs. SPIB was the gene presenting the most significant negative correlation with both YK-4-279 and TK-216, especially among the ABC DLBCL cell lines (P<0.05). SPIB is a known oncogene for ABC DLBCL (Lenz et al, PNAS 2008) and is involved in the response to lenalidomide in ABC DLBCL (Yang et al, Cancer Cell 2012). YK-4-279 inhibits the binding of EWS1-FLI1 to the helicases RHA and DDX5 (Selvanathan et al, PNAS 2012). Thus, it was assessed whether YK-4-279 and TK-216 can have a similar effect on SPIB and whether they induce cellular effects similar to lenalidomide. […] In ABC DLBCL, the ETS inhibitor YK-4-279 and its clinical derivative TK-216 interfere with SPIB and helicases involved in RNA editing. Moreover, both compounds act similarly to lenalidomide inhibiting IRF4 and upregulating IRF7 and synergize with the IMID in both ABC DLBCL and MCL."}, "[14]": {"target": "T3, SPIB to RHA (Homo sapiens, UniProt Q01892)", "T3 construct": "endogenous in cells", "T3 sequence (Q01892 whole entry)": "as above", "experiment": "Co-IP of SPIB with helicases in ABC DLBCL cell lines", "type": "cell-based", "settings": "500 nM, 4-10 h", "description": "as §4"}, "[15]": {"test_system": "IRF4", "experiment": "Protein levels in cells", "type": "cell-based", "settings": "similarly to lenalidomide", "description": "as §4"}, "[16]": {"test_system": "IRF7", "experiment": "Protein levels in cells", "type": "cell-based", "settings": "similarly to lenalidomide", "description": "as §4"}},
  "data": [
    {"smiles": "O=C(CC1(O)C(=O)Nc2c(Cl)ccc(Cl)c21)c1ccc(C2CC2)cc1", "note": "(centres unmarked) [TK216, 4,7-Dichloro-3-(2-(4-cyclopropylphenyl)-2-oxoethyl)-3-hydroxyindolin-2-one]", "values": [
      {"measurement": "EC50", "setting": "[1]", "value": "< 100", "unit": "nM"},
      {"measurement": "binding between EWS-FLI1 and RNA helicase A", "setting": "[2]", "value": "blocked the binding"},
      {"measurement": "IC50", "setting": "[3]", "value": 363, "unit": "nM"},
      {"measurement": "IC50", "setting": "[4]", "value": 393, "unit": "nM"},
      {"measurement": "IC50", "setting": "[5]", "value": 152, "unit": "nM"},
      {"measurement": "IC50", "setting": "[6]", "value": 95, "unit": "nM"},
      {"measurement": "IC50", "setting": "[7]", "value": 106, "unit": "nM"},
      {"measurement": "combination effect with ABT199 (BCL-2i), Combination Index", "setting": "[8]; combined with ABT199", "value": "synergy"},
      {"measurement": "combination effect with ACP196 (BTKi), Combination Index", "setting": "[8]; combined with ACP196", "value": "synergy"},
      {"measurement": "effect of TK216 in combination with OTX015", "setting": "[9]; KARPAS422, with OTX015", "value": "Synergism"},
      {"measurement": "effect of TK216 in combination with PQR309", "setting": "[9]; KARPAS422, with PQR309", "value": "additive effect"},
      {"measurement": "effect of TK216 in combination with bendamustine", "setting": "[9]; KARPAS422, with bendamustine", "value": "additive effect"},
      {"measurement": "effect of TK216 in combination with idelalisib", "setting": "[9]; KARPAS422, with idelalisib", "value": "Synergism"},
      {"measurement": "effect of TK216 in combination with selinexor", "setting": "[9]; KARPAS422, with selinexor", "value": "additive effect"},
      {"measurement": "effect of TK216 in combination with venetoclax", "setting": "[9]; KARPAS422, with venetoclax", "value": "Synergism"},
      {"measurement": "effect of TK216 in combination with vincristine", "setting": "[9]; KARPAS422, with vincristine", "value": "additive effect"},
      {"measurement": "CI values, TK-216/rituximab", "setting": "[9]; Karpas422, with rituximab, not plotted", "value": "> 3"},
      {"measurement": "effect of TK216 in combination with OTX015", "setting": "[10]; with OTX015", "value": "additive effect"},
      {"measurement": "effect of TK216 in combination with PQR309", "setting": "[10]; with PQR309", "value": "No benefit effects"},
      {"measurement": "effect of TK216 in combination with bendamustine", "setting": "[10]; with bendamustine", "value": "No benefit effects"},
      {"measurement": "effect of TK216 in combination with bortezomib", "setting": "[10]; with bortezomib", "value": "No benefit effects"},
      {"measurement": "effect of TK216 in combination with ibrutinib", "setting": "[10]; with ibrutinib", "value": "additive effect"},
      {"measurement": "effect of TK216 in combination with idelalisib", "setting": "[10]; with idelalisib", "value": "Synergism"},
      {"measurement": "effect of TK216 in combination with lenalidomide", "setting": "[10]; with lenalidomide", "value": "Synergism"},
      {"measurement": "CI values, TK-216/rituximab", "setting": "[10]; with rituximab, not plotted", "value": "> 3"},
      {"measurement": "effect of TK216 in combination with selinexor", "setting": "[10]; with selinexor", "value": "No benefit effects"},
      {"measurement": "effect of TK216 in combination with venetoclax", "setting": "[10]; with venetoclax", "value": "Synergism"},
      {"measurement": "effect of TK216 in combination with vincristine", "setting": "[10]; with vincristine", "value": "additive effect"},
      {"measurement": "effect of TK216 in combination with OTX015", "setting": "[11]; with OTX015", "value": "No benefit effects"},
      {"measurement": "effect of TK216 in combination with PQR309", "setting": "[11]; with PQR309", "value": "additive effect"},
      {"measurement": "effect of TK216 in combination with bendamustine", "setting": "[11]; with bendamustine", "value": "No benefit effects"},
      {"measurement": "effect of TK216 in combination with idelalisib", "setting": "[11]; with idelalisib", "value": "No benefit effects"},
      {"measurement": "effect of TK216 in combination with selinexor", "setting": "[11]; with selinexor", "value": "No benefit effects"},
      {"measurement": "effect of TK216 in combination with venetoclax", "setting": "[11]; with venetoclax", "value": "No benefit effects"},
      {"measurement": "effect of TK216 in combination with vincristine", "setting": "[11]; with vincristine", "value": "Synergism"},
      {"measurement": "effect of TK216 in combination with OTX015", "setting": "[12]; with OTX015", "value": "additive effect"},
      {"measurement": "effect of TK216 in combination with PQR309", "setting": "[12]; with PQR309", "value": "additive effect"},
      {"measurement": "effect of TK216 in combination with bendamustine", "setting": "[12]; with bendamustine", "value": "No benefit effects"},
      {"measurement": "effect of TK216 in combination with bortezomib", "setting": "[12]; with bortezomib", "value": "Synergism"},
      {"measurement": "effect of TK216 in combination with ibrutinib", "setting": "[12]; with ibrutinib", "value": "additive effect"},
      {"measurement": "effect of TK216 in combination with lenalidomide", "setting": "[12]; with lenalidomide", "value": "Synergism"},
      {"measurement": "effect of TK216 in combination with lidelalisib", "setting": "[12]; with lidelalisib", "value": "additive effect"},
      {"measurement": "CI values, TK-216/rituximab", "setting": "[12]; with rituximab, not plotted", "value": "> 3"},
      {"measurement": "effect of TK216 in combination with selinexor", "setting": "[12]; with selinexor", "value": "additive effect"},
      {"measurement": "effect of TK216 in combination with venetoclax", "setting": "[12]; with venetoclax", "value": "Synergism"},
      {"measurement": "effect of TK216 in combination with vincristine", "setting": "[12]; with vincristine", "value": "No benefit effects"},
      {"measurement": "binding of SPIB to DDX5", "setting": "[13]", "value": "to a lesser extent, to DDX5 was decreased"},
      {"measurement": "binding of SPIB to RHA", "setting": "[14]", "value": "decreased"},
      {"measurement": "IRF4 protein in cells", "setting": "[15]", "value": "decreased IRF4"},
      {"measurement": "IRF7 protein in cells", "setting": "[16]", "value": "upregulated IRF7"}
    ]}
  ]
}
